Calls of active or inactive are those of the source.
How the values were obtained:
[1] = Luminescence Cell-Based Dose Response HTS to Identify Activators of Luciferase Translation or Activity in H4 […] Cells. [Related pubchem assays: 1829 (Project Summary), 1814 (Primary HTS)]; assay type: functional
[2] = Vero E6 cell cytotoxicity, dose response, cytotoxicity control for non-replicating M. tuberculosis project, secondary assay (AID 492998); assay type: functional, VeroE6; conditions: Vero C1008
[3] = HepG2 cell cytotoxicity, dose response, cytotoxicity control for non-replicating M. tuberculosis project (AID 489018); assay type: functional; conditions: Mycobacterium tuberculosis
[4] = THP-1 cell cytotoxicity, dose response, cytotoxicity control for non-replicating M. tuberculosis project (AID 489025); assay type: functional
[5] = molecular target: Heat shock protein HSP 90-alpha (Homo sapiens, UniProt P07900); assay type: functional, organism-based
[6] = Luminescence Cell-Based Dose Confirmation HTS to Identify Activators of 5'UTR Stem-Loop Driven Alpha-Synuclein mRNA Translation in H4 Neuroglioblastoma Cells. [Related pubchem assays: 1829 (Project Summary), 1814 (Primary HTS)]; assay type: functional
[7] = molecular target: T1, Sphingosine 1-phosphate receptor 4 (Homo sapiens, UniProt O95977); assay: Fluorescence dose response cell-based high throughput screening assay for antagonists of the Sphingosine 1-Phosphate Receptor 4 (S1P4). [Related pubchem assays: 1524 (Confirmation in triplicates.), 1510 (Primary screen.)]; assay type: functional
T1 sequence (O95977 whole entry): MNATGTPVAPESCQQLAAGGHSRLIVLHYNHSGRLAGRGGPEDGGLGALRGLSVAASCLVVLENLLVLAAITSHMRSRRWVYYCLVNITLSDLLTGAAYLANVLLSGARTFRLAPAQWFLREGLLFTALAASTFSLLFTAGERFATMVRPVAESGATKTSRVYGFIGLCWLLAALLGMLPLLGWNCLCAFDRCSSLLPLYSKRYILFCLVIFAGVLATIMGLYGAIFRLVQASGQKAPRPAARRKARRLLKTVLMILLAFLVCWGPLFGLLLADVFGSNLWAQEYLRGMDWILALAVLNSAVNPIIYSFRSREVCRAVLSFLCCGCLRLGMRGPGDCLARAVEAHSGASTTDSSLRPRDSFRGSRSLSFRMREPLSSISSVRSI

[8] = molecular target: T1, Sphingosine 1-phosphate receptor 4; assay: Late stage fluorescence dose response cell-based screening assay for antagonists of the Sphingosine 1-Phosphate Receptor 4 (S1P4). [Related pubchem assays: 1524 (Confirmation screen (S1P4 antagonists).), 1510 (Primary screen (S1P4 antagonists).), 1853 (Summary AID (S1P4 antagonists).), 1692 (Dose response screen (S1P4 antagonists).)]; assay type: functional
H4 = assay: Luminescence Cell-Based Dose Response HTS to Identify Activators of 5'UTR Stem-Loop Driven Prion Protein mRNA Translation in H4 Neuroglioblastoma Cells. [Related pubchem assays: 1829 (Project Summary), 1814 (Primary HTS)]; assay type: functional; conditions: Homo sapiens
Large T antigen = Large T antigen (Simian virus 40, UniProt P03070); assay type: functional, Betapolyomavirus macacae;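 also: Confirmatory-stage PubChem screen for compounds that inhibit SV40 T antigen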
[9] = molecular target: T2, Histone-lysine N-methyltransferase NSD2 (Homo sapiens, UniProt O96028); assay type: biochemical
T2 sequence (O96028 whole entry): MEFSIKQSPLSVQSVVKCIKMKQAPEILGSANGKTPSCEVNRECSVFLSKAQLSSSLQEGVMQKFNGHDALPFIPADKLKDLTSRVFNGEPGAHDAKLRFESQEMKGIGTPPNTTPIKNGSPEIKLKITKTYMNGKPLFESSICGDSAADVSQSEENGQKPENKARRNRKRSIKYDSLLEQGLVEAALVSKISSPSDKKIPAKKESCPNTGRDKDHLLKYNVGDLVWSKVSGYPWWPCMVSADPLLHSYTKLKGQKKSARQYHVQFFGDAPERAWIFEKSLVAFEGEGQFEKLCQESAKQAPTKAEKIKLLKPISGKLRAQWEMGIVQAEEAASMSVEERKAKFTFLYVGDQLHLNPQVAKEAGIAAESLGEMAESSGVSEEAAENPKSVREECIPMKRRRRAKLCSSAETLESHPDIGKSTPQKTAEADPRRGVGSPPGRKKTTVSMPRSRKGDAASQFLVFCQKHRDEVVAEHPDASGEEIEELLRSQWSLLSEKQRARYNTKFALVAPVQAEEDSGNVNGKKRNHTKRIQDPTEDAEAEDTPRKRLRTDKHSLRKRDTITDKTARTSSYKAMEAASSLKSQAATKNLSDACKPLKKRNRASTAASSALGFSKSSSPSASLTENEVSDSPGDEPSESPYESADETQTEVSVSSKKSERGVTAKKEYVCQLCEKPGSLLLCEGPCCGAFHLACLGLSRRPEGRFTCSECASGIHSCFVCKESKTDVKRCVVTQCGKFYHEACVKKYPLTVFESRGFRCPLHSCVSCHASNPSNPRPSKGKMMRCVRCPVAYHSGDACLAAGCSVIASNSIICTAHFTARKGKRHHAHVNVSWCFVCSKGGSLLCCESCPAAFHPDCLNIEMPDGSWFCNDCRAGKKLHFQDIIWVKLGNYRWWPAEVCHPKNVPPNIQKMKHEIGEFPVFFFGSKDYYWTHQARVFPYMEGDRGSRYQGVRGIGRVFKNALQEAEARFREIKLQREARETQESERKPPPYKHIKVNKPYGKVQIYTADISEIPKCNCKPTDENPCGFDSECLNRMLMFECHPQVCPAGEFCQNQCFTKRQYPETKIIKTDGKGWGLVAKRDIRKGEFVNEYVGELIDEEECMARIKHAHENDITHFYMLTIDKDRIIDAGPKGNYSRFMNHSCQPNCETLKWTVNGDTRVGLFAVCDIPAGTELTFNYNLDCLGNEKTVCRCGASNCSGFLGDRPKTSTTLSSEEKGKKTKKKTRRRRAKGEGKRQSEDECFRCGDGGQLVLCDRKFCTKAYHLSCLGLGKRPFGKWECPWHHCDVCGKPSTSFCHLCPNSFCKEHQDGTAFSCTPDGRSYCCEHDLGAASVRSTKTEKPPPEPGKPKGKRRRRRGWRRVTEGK

Chain of Large T antigen (P03070 whole entry): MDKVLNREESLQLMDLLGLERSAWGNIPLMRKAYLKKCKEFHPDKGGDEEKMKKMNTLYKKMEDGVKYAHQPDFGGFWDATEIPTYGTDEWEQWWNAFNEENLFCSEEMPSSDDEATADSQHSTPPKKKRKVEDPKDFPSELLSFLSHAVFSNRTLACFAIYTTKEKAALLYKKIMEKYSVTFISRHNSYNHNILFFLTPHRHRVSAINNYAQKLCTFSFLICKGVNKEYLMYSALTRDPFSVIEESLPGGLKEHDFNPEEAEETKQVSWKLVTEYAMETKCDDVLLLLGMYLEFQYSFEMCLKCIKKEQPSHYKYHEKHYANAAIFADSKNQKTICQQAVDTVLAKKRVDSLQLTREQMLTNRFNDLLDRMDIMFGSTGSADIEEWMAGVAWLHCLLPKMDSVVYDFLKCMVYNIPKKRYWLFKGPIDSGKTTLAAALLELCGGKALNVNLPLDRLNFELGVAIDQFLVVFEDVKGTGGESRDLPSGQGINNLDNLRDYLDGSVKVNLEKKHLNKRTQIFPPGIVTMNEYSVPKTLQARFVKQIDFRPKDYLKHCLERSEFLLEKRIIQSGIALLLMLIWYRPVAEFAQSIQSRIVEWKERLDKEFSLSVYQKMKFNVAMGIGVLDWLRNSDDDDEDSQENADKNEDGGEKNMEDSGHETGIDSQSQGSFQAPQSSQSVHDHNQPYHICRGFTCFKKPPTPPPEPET

| Compound | EC50 [1] | CC50 [2] | CC50 [3] | CC50 [4] | AC50 [5] | EC50 [6] | IC50 [7] | IC50 [8] | EC50 (H4) | IC50 (Large T antigen) | AC50 [9] |
| --- | --- | --- | --- | --- | --- | --- | --- | --- | --- | --- | --- |
| O=C(Nc1ccccc1)c1nnsc1[S+]([O-])c1ccc(Cl)cc1 (stereo unspecified) | 4.31 µM (active) | 13.1 µM (active) | 19.1 µM (active) | 23.4 µM (active) | < 0.195 µM (active) | 8.7 µM (active) | 1.15 µM (active) | 12 µM (not active) | 24 µM (active) | 25 µM (active) |  |
| CC1OC(Nc2cccc3ccccc23)C(O)C(O)C1O (stereo unspecified) |  |  |  |  |  |  |  |  |  |  | 9.24 µM (active) |

— ChEMBL document CHEMBL1201862, “PubChem BioAssay data set” (2004)
